Measured values from patent publication EP0096116B1, “Thiophene derivative having a mucoregulating and anticough activity, process for its preparation and pharmaceutical compositions containing it” (AUSONIA FARMACEUTICI S.r.l., priority 1982, dated 1983).

What was measured:
[1] = Acute toxicity (method of Litchfield and Wilcoxon), rat; settings: Wistar, in vivo
Description: (§1) The acute toxicity has been determined in Swiss mouses and in Wistar rats for different administration routes, according to the method of Litchfield J. T. and Wilcoxon [J. Pharm. Exp. Therap. 96,99-113 (1949)].

[2] = Pharmacokinetic tests after oral administration; format: in vivo; settings: oral administration of I and sobrerol in equimolar doses, in the animal
[3] = Solubility of the isolated compound; format: physicochemical
Description: 73 Grams of an oil, impossible to crystallize but perfectly pure in TLC, are obtained.

[4] = tested on: tracheo-bronchial mucus from rabbits; assay: Fluidifying activity in vivo, microviscosimeter on tracheo-bronchial mucus; settings: 500 mg/kg/os, rabbit
Description: The fluidifying effect has been determined with the microviscosimeter on the tracheo-bronchial mucus from rabbits after administration by oral route, comparing I with sobrerol, at the doses hereinafter stated.

male Wistar rats = assay: Bronchosecretogogue activity (Mawatari technique); format: in vivo, rat; settings: 500 mg/kg/os, FlNa = Sodium fluoresceine
Description: The broncosecretogogue activity has been determined in male Wistar rats by per os administration according to the method of Mawatari [Mawatari H., Kagoshima Daigaku, Igaku-Zasshi, 27, 561 (1976)], comparing I with carboxymethylcysteine, sobrerol and guaiphenesin at the doses hereinafter stated.

[5] = Acute toxicity (method of Litchfield and Wilcoxon), mouse; settings: Swiss, in vivo
Description: as §1

Row | SMILES | LD50 ([1]; ip) [mg/kg] | LD50 ([1]; oral, os) [mg/kg] | sobrerol concentrations at pulmonary level [2] | solubility in the common organic solvents ([3]; common organic solvents) | solubility in water ([3]; water) | % Reduction of the mucus viscosity [4] [%] | % Increase of FlNa in comparison with controls (male Wistar rats) [%] | LD50 ([5]; ip) [mg/kg] | LD50 ([5]; oral, os) [mg/kg]
1 | CC1=CCC(C(C)(C)O)CC1OC(=O)c1cccs1 (centres unmarked) [Compound I, thiophen-2-carboxylate of 2-methyl-5-(1-hydroxy-1-methylethyl)-cyclohexen-2-yl] | 2650 | > 4000 | higher sobrerol concentrations at pulmonary level | soluble in the common organic solvents | almost insoluble in water | 39.8 | 76.4 | 2500 | > 4000
2 | CC1=CCC(C(C)(C)O)CC1O (centres unmarked) [Sobrerol, 2-methyl-5-(1-hydroxy-1-methyl-ethyl)-2-cyclohexen-1-ol, reference compound] |  |  |  |  |  | 15.6 | 33.4 |  | 
